Data published in patent publication US20110123483A1, “HMGB1 FOR CANCER TREATMENT” (DEUTSCHES KREBSFORSCHUNGSZENTRUM, priority 2009, published 2011).
“Also recorded” adds a separate entry of the source.

Assays:
U251MG glioma cells = test: Cell proliferation, counting in a Neubauer chamber; type: cell-based, human; settings: increasing concentrations, several days (FIG. 1A)
Description: (§1) 20,000 U251MG glioblastoma cells or human astrocytic cells (ScienCell) were plated into 96-well plates. After 24 h cells were treated with rhHMGB1 (Sigma Aldrich) or rat recombinant HMGB1 (generously provided by Angelika Bierhaus, Heidelberg, Germany), and TRAIL (for 24 h) or Temozolomide (for 72 h) alone or in combination, respectively. Cell survival was measured by crystal violet staining as described previously (Gdynia et al., 2007). Cell proliferation was assessed by seeding 50,000 U251 MG cells in 6 cm culture plates and treatment with rhHMGB1, followed by counting the cells in a Neubauer chamber at day 0, 2, 4 and 5.

[1] = test system: non-immortalized human astrocytic cells; test: Cytotoxicity assay, cell survival by crystal violet staining; type: cell-based; settings: 72 h (FIG. 1B)
Description: (§2) U251 glioblastoma cells and non-immortalized human astrocytic cells (ScienCell, USA) were maintained in DMEM (Life Technologies) containing 10% FCS, 4.5 g/L glucose, glutamine, 110 mg/L sodium pyruvate, and 1% penicillin-streptomycin (Life Technologies) and in astrocyte medium (ScienCell) containing 2% FBS (fetal bovine serum) and 1% penicillin-streptomycin at 37° C. and 5% CO2. For the generation of pseudo rho zero cells (0.0), U251 MG cells were treated with low dose (250 ng/ml) ethidiumbromide for 3 months. The cells were supplemented with DMEM (10% FCS, 1% P/S) containing 50 μg/ml L-pyruvate and 5 mg/ml uridine (King and Attardi, 1989).
as §1

NCH421 K cells = test: Propidiumiodide (PI) uptake by FACS analysis; type: cell-based; settings: 80 nM or 600 nM (FIG. 12C)
JNK1/2 = test: Western blot analysis of JNK1/2 phosphorylation; type: cell-based, human; settings: 24 h (FIG. 3C)
Description: (§3) The U251 MG tumor cells were lysed in lysis buffer containing 20 mmol/L Tris-HCl (pH 7.4), 137 mmol/L NaCl, 10% (v/v) glycerine, 1% Triton X-100, 2 mmol/L EDTA, 100 mmol/L phenylmethylsulfonyl fluoride, and protease inhibitors (Complete mini; Roche Molecular Biochemicals). For the detection of phosphoprotein levels, 10 mmol/L NaPPi, 50 mmol/L NaF, and 20 mmol/L NaVO4 were added to the lysis buffer. After 15 min incubation on ice, the lysates were centrifuged at 14,000×g for 10 min. The total protein concentration of the lysates was measured using the Bradford assay (Bio-Rad). Soluble protein (25-100 μg per lane) was separated on 10% to 15% polyacrylamide gels and blotted onto nitrocellulose by standard procedures. […]

pseudo rho zero cells = test: Survival of pseudo rho zero cells by crystal violet analysis; type: cell-based, human; settings: cells devoid of intact mitochondrial DNA
Description: as §2, §1

U251 MG cells = test: Western blot of phospho-H2A.X and BNIP3; type: cell-based, human; settings: 24 h (FIG. 7)
Description: as §3

mitochondrial proteome = test: 2-D gel electrophoresis / 2-D western blot of the mitochondrial proteome; type: cell-based, human
Description: Mitochondrial extracts of U251 MG cells precipitated according to the ProteoExtract Protein Precipitation Kit (Calbiochem) were pipetted into the sample cup of each strip holder. For large format 2-D-electrophoresis with silver staining and 2-D-western blots, isoelectric focusing (IEF) was performed as described previously (Schutt et al., 2002) using dry polyacrylamide gel strips (IPG, 24 cm) with an immobilized pH gradient pH 3-10 and the IPGphor1 Isolectric Focusing System (Amersham Pharmacia Biotech). IPG strips were rehydrated in reswelling buffer (7 M urea, 2 M thiourea, 2% (w/v) CHAPS, 65 mM dithiothreitol (DTT), 0.8% Pharmalite) overnight. The IEF protocol started at 500 V for 4 h, followed by an increase from 500 V to 4000 V for 10 h and finally 8000 V for 10 h. Equilibration buffer for IPG strips contained 75 mM Tris-HCl, pH 8.8, 2% SDS, 6 M urea, 29.3% glycerol and 0.002% (w/v) bromophenol blue solution, supplemented with 1.5% DDT for the first 15 min and with 2.5% (w/v) iodoacetamide for the following 15 min. For the second dimension the ETTAN Dalt six electrophoresis system was used. After draining the equilibration solution on filter paper the IPG strips were placed on the SDS gel; the electrical settings were 10 mA/gel, 80 V, 1 W/gel for 1 h, followed by 40 mA/gel, 500 V, 13 W/gel for 5-6 h. […]

## rhHMGB1: recombinant human High Mobility Group B1 protein (Sigma Aldrich)
U251MG glioma cells
  induction of cell death: induction of cell death even at low nanomolar concentrations
  tumor cell proliferation: strong inhibition
[1]
  susceptibility to rhHMGB1-induced cell death: not human non-immortalized astrocytes were susceptible
NCH421 K cells
  Propidiumiodide (PI) uptake compared to untreated control: evidently increased
JNK1/2
  phosphorylation of c-Jun N-terminal kinase 1/2 (JNK): continuous and dose dependent phosphorylation
Pseudo rho zero cells
  rhHMGB1-induced cell death in pseudo rho zero cells: almost completely resistant; also recorded: highly protected
U251 MG cells
  BNIP3 expression: not up-regulated
  H2A.X phosphorylation: not observed
Mitochondrial proteome; 80 nM, 24 h (FIG. 11B)
  mitochondrial proteome, 2-D silver staining: massive depletion of the isoelectric-neutral proteins
Mitochondrial proteome; alkaline range (FIG. 11C)
  covalently bound malondialdehyde, 2-D western blot: substantial increase in covalently bound malondialdehyde
